{"source": "patent US20050215614A1", "about": "“Substituted indoles and their use as hcv inhibitors” (Rigel Pharmaceuticals, Inc., priority 2003, published 2005)", "data": [{"test_system": "HCV replicon", "experiment": "HCV Replicon Assay (luciferase, 5-2 Luc replicon cells)", "assay_type": "cell-based", "settings": "5-2 Luc replicon cells (Huh7), 24-48 hours with compound, luciferase counts", "method": "Actively dividing 5-2 Luc replicon cells were seeded at the density of 5000-7500 cells/well in the volume of 90 μl/well into 96 well plate(s). The cells were then incubated at 37° C. and 5% CO2 for 24 hours. The 5-2 cells are replicon cells licensed from Ralf Bartenschlager (Germany) and have a self-replicating RNA molecule in the Huh7 cell; the RNA contains HCV non-structural proteins that make the self-replication possible.\nVarious concentrations of compounds (in the volume of 10 μl) were added into each well 24 hours after seeding the cells. The cells were incubated for another 24-48 hours before luciferase assay.\nAfter incubating the 5-2 Luc replicon cells with the compounds for 24-48 hours, media were aspirated from each well and Bright-Glo (Promega) luciferase assay reagents were added to each well according to the manufacturer′s manual. Briefly, the Bright-Glo reagent was diluted with equal volume of PBS and an aliquote (100 μl) was added to each well. After incubating the plate at room temperature for 5 minutes, luciferase counts were taken using a luminometer.", "values": [{"smiles": "CC(C)(C)c1cc2cc(NC(=O)Cc3cccc4ccccc34)ccc2[nH]1", "note": "[Compound 5a, 2-t-Butyl-5-(naphth-1-yl-ethanoyl)aminoindole]", "Activity (concentration of inhibitory activity)": "b (“b” indicates activity is at a concentration greater than 10 micromolar)"}, {"smiles": "CC(C)(C)c1cc2cc(NC(=O)Cc3cccc([N+](=O)[O-])c3)ccc2[nH]1", "note": "[Compound 5b, 2-t-Butyl-5-(3-nitrophenylethanoyl)aminoindole]", "Activity (concentration of inhibitory activity)": "b (“b” indicates activity is at a concentration greater than 10 micromolar)"}, {"smiles": "CC(C)(C)c1cc2cc(NC(=O)C3CCCC3)ccc2[nH]1", "note": "[Compound 5c, 2-t-Butyl-5-(cyclopentanecarbonyl)aminoindole]", "Activity (concentration of inhibitory activity)": "a (“a” indicates inhibitory activity at a concentration of less than 10 micromolar)"}, {"smiles": "CC(C)(C)c1cc2cc(NC(=O)C3(c4ccc(Cl)cc4)CCCC3)ccc2[nH]1", "note": "[Compound 5d, 2-t-Butyl-5-(1-(4chlorophenyl)-1-cyclopentanecarbonyl)aminoindole]", "Activity (concentration of inhibitory activity)": "b (“b” indicates activity is at a concentration greater than 10 micromolar)"}, {"smiles": "CC(C)(C)c1cc2cc(NC(=O)c3c(F)cccc3F)ccc2[nH]1", "note": "[Compound 5e, 2-t-Butyl-5-(2′,6′-difluorophenylcarbonyl)aminoindole]", "Activity (concentration of inhibitory activity)": "a (“a” indicates inhibitory activity at a concentration of less than 10 micromolar)"}, {"smiles": "CC(C)(C)c1cc2cc(NC(=O)c3ccc(Cl)cc3Cl)ccc2[nH]1", "note": "[Compound 5f, 2-t-Butyl-5-(2′,4′-dichlorophenylcarbonyl)aminoindole]", "Activity (concentration of inhibitory activity)": "a (“a” indicates inhibitory activity at a concentration of less than 10 micromolar)"}, {"smiles": "Cc1ccsc1C(=O)Nc1ccc2[nH]c(C(C)(C)C)cc2c1", "note": "[Compound 5g, 2-t-Butyl-5-(3-methylthiophene-2-carbonyl)aminoindole]", "Activity (concentration of inhibitory activity)": "a (“a” indicates inhibitory activity at a concentration of less than 10 micromolar)"}, {"smiles": "CC(C)(C)c1cc2cc(NC(=O)C(Cl)Cl)ccc2[nH]1", "note": "[Compound 5h, 2-t-Butyl-5-dichloroacetamidoindole]", "Activity (concentration of inhibitory activity)": "a (“a” indicates inhibitory activity at a concentration of less than 10 micromolar)"}, {"smiles": "Cc1cn(C(=O)c2c(Cl)cccc2Cl)c2ccc(NC(=O)C3CCCC3)cc12", "note": "[Compound 9a, 5-(Cyclopentanecarbonyl)amino-1-(2′,6′-dichlorobenzoyl)-3-methylindole]", "Activity (concentration of inhibitory activity)": "a (“a” indicates inhibitory activity at a concentration of less than 10 micromolar)"}, {"smiles": "CCCC(=O)Nc1ccc2c(c1)c(C)cn2C(=O)c1c(Cl)cccc1Cl", "note": "[Compound 9b, 1-(2′,6′-Dichlorobenzoyl)-3-methyl-5-(n-propanecarbonyl)aminoindole]", "Activity (concentration of inhibitory activity)": "a (“a” indicates inhibitory activity at a concentration of less than 10 micromolar)"}, {"smiles": "Cc1cn(C(=O)c2c(Cl)cccc2Cl)c2ccc(NC(=O)C3CCC3)cc12", "note": "[Compound 9c, 5-(Cyclobutanecarbonyl)amino-1-(2′,6′-dichlorobenzoyl)-3-methylindole]", "Activity (concentration of inhibitory activity)": "a (“a” indicates inhibitory activity at a concentration of less than 10 micromolar)"}, {"smiles": "Cc1cn(C(=O)c2c(Cl)cccc2Cl)c2ccc(NC(=O)C3CC3)cc12", "note": "[Compound 9d, 5-(Cyclopropanecarbonyl)amino-1-(2′,6′-dichlorobenzoyl)-3-methylindole]", "Activity (concentration of inhibitory activity)": "a (“a” indicates inhibitory activity at a concentration of less than 10 micromolar)"}, {"smiles": "CCCCC(=O)Nc1ccc2c(c1)c(C)cn2C(=O)c1c(Cl)cccc1Cl", "note": "[Compound 9e, 5-(n-Butanecarbonyl)amino-1-(2′,6′-dichlorobenzoyl)-3-methylindole]", "Activity (concentration of inhibitory activity)": "a (“a” indicates inhibitory activity at a concentration of less than 10 micromolar)"}, {"smiles": "C/C=C/C(=O)C(=O)Nc1ccc2c(c1)c(C)cn2C(=O)c1c(Cl)cccc1Cl", "note": "[Compound 9f, 5-(trans-Crotonylcarbonyl)amino-1-(2′,6′-dichlorobenzoyl)-3-methylindole]", "Activity (concentration of inhibitory activity)": "a (“a” indicates inhibitory activity at a concentration of less than 10 micromolar)"}, {"smiles": "Cc1c(C)n(C(=O)c2c(Cl)cccc2Cl)c2ccc(NC(=O)C3CCCCC3)cc12", "note": "[Compound 13a, 5-(Cyclohexanecarbonyl)amino-1-(2′,6′-dichlorobenzoyl)-2,3-dimethylindole]", "Activity (concentration of inhibitory activity)": "a (“a” indicates inhibitory activity at a concentration of less than 10 micromolar)"}, {"smiles": "Cc1c(C)n(C(=O)c2c(Cl)cccc2Cl)c2ccc(NC(=O)C3CCCC3)cc12", "note": "[Compound 13b, 5-(Cyclopentanecarbonyl)amino-1-(2′,6′-dichlorobenzoyl)-2,3-dimethylindole]", "Activity (concentration of inhibitory activity)": "a (“a” indicates inhibitory activity at a concentration of less than 10 micromolar)"}, {"smiles": "Cc1c(C)n(C(=O)c2c(Cl)cccc2Cl)c2ccc(NC(=O)C3CCC3)cc12", "note": "[Compound 13c, 5-(Cyclobutanecarbonyl)amino-1-(2′,6′-dichlorobenzoyl)-2,3-dimethylindole]", "Activity (concentration of inhibitory activity)": "a (“a” indicates inhibitory activity at a concentration of less than 10 micromolar)"}, {"smiles": "Cc1c(C)n(C(=O)c2c(Cl)cccc2Cl)c2ccc(NC(=O)C3CC3)cc12", "note": "[Compound 13d, 5-(Cyclopropanecarbonyl)amino-1-(2′,6′-dichlorobenzoyl)-2,3-dimethylindole]", "Activity (concentration of inhibitory activity)": "a (“a” indicates inhibitory activity at a concentration of less than 10 micromolar)"}, {"smiles": "CCCCC(=O)Nc1ccc2c(c1)c(C)c(C)n2C(=O)c1c(Cl)cccc1Cl", "note": "[Compound 13e, 5-(n-Butanecarbonyl)amino-1-(2′,6′-dichlorobenzoyl)-2,3-dimethylindole]", "Activity (concentration of inhibitory activity)": "a (“a” indicates inhibitory activity at a concentration of less than 10 micromolar)"}, {"smiles": "Cc1cc2cc(NC(=O)C3CCCCC3)ccc2n1C(=O)c1c(Cl)cccc1Cl", "note": "[Compound 16a-2, 5-Cyclohexanecarbonylamino-1-(2′,6′-dichlorobenzoyl)-2-methylindole]", "Activity (concentration of inhibitory activity)": "a (“a” indicates inhibitory activity at a concentration of less than 10 micromolar)"}, {"smiles": "Cc1cc2cc(NC(=O)C3CCC3)ccc2n1C(=O)c1c(Cl)cccc1Cl", "note": "[Compound 16a-3, 5-Cyclobutanecarbonylamino-1-(2′,6′-dichlorobenzoyl)-2-methylindole]", "Activity (concentration of inhibitory activity)": "a (“a” indicates inhibitory activity at a concentration of less than 10 micromolar)"}, {"smiles": "Cc1cc2cc(NC(=O)C3CC3)ccc2n1C(=O)c1c(Cl)cccc1Cl", "note": "[Compound 16a-4, 5-Cyclopropanecarbonylamino-1-(2′,6′-dichlorobenzoyl)-2-methylindole]", "Activity (concentration of inhibitory activity)": "a (“a” indicates inhibitory activity at a concentration of less than 10 micromolar)"}, {"smiles": "Cc1cc2cc(NC(=O)C(C)C)ccc2n1C(=O)c1c(Cl)cccc1Cl", "note": "[Compound 16a-5, 1-(2′,6′-Dichlorobenzoyl)-5-(2-methylpropanoyl)amino-2-methylindole]", "Activity (concentration of inhibitory activity)": "a (“a” indicates inhibitory activity at a concentration of less than 10 micromolar)"}, {"smiles": "CCC(C)C(=O)Nc1ccc2c(c1)cc(C)n2C(=O)c1c(Cl)cccc1Cl", "note": "(stereo not shown) [Compound 16a-6, 1-(2′,6′-Dichlorobenzoyl)-5-(2-methylbutanoyl)amino-2-methylindole]", "Activity (concentration of inhibitory activity)": "a (“a” indicates inhibitory activity at a concentration of less than 10 micromolar)"}, {"smiles": "CCCCC(=O)Nc1ccc2c(c1)cc(C)n2C(=O)c1c(Cl)cccc1Cl", "note": "[Compound 16a-7, 1-(2′,6′-Dichlorobenzoyl)-5-(n-pentanoyl)amino-2-methylindole]", "Activity (concentration of inhibitory activity)": "a (“a” indicates inhibitory activity at a concentration of less than 10 micromolar)"}, {"smiles": "C/C=C/C(=O)Nc1ccc2c(c1)cc(C)n2C(=O)c1c(Cl)cccc1Cl", "note": "[Compound 16a-8, 5-(trans-Crotonyl)amino-1-(2′,6′-dichlorobenzoyl)-2-methylindole]", "Activity (concentration of inhibitory activity)": "a (“a” indicates inhibitory activity at a concentration of less than 10 micromolar)"}, {"smiles": "CCC(CC)C(=O)Nc1ccc2c(c1)cc(C)n2C(=O)c1c(Cl)cccc1Cl", "note": "[Compound 16a-9, 1-(2′,6′-Dichlorobenzoyl)-5-(2-ethylbutanoyl)amino-2-methylindole]", "Activity (concentration of inhibitory activity)": "a (“a” indicates inhibitory activity at a concentration of less than 10 micromolar)"}, {"smiles": "Cc1cc2cc(NC(=O)c3cccnc3)ccc2n1C(=O)c1c(Cl)cccc1Cl", "note": "[Compound 16a-10, 1-(2′,6′-Dichlorobenzoyl)-5-(3-pyridylcarbonyl)amino-2-methylindole]", "Activity (concentration of inhibitory activity)": "a (“a” indicates inhibitory activity at a concentration of less than 10 micromolar)"}, {"smiles": "Cc1ccsc1C(=O)Nc1ccc2c(c1)cc(C)n2C(=O)c1c(Cl)cccc1Cl", "note": "[Compound 16a-11, 1-(2′,6′-Dichlorobenzoyl)-5-(3-methyl-2-thiophenylcarbonyl)amino-2-methylindole]", "Activity (concentration of inhibitory activity)": "a (“a” indicates inhibitory activity at a concentration of less than 10 micromolar)"}, {"smiles": "COc1cscc1C(=O)Nc1ccc2c(c1)cc(C)n2C(=O)c1c(Cl)cccc1Cl", "note": "[Compound 16a-12, 1-(2′,6′-Dichlorobenzoyl)-5-(4-methoxy-3-thiophenylcarbonyl)amino-2-methylindole]", "Activity (concentration of inhibitory activity)": "a (“a” indicates inhibitory activity at a concentration of less than 10 micromolar)"}, {"smiles": "Cc1cc2cc(NC(=O)Cc3cccnc3)ccc2n1C(=O)c1c(Cl)cccc1Cl", "note": "[Compound 16a-13, 1-(2′,6′-Dichlorobenzoyl)-5-(3-pyridyl-2-acetamido)-2-methylindole]", "Activity (concentration of inhibitory activity)": "a (“a” indicates inhibitory activity at a concentration of less than 10 micromolar)"}]}]}
